Experimental data: PubChem BioAssay (NCI)
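Cells were grown in 96-well plates and exposed to each compound for 48 hours at five concentrations; endpoints were interpolated linearly between bracketing concentrations, or set to the highest concentration if not reached. Abbreviation: GI50, concentration required for 50% inhibition of growth. Definition used: TGI = concentration required for complete inhibition of growth.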

Experiments:
Experiment in all cases: NCI anticancer screen, dose series, 48 h
HCT-116 colon = test system: HCT-116 colon
SR leukemia = test system: SR leukemia
SNB-75 CNS = test system: SNB-75 CNS
NCI-H226 lung = test system: NCI-H226 lung
M14 melanoma = test system: M14 melanoma
OVCAR-3 ovarian = test system: OVCAR-3 ovarian
SK-OV-3 ovarian = test system: SK-OV-3 ovarian
T-47D breast = test system: T-47D breast
OVCAR-4 ovarian = test system: OVCAR-4 ovarian
K-562 leukemia = test system: K-562 leukemia
TK-10 renal = test system: TK-10 renal
RPMI-8226 leukemia = test system: RPMI-8226 leukemia
UACC-62 melanoma = test system: UACC-62 melanoma
MOLT-4 leukemia = test system: MOLT-4 leukemia
ACHN renal = test system: ACHN renal
OVCAR-8 ovarian = test system: OVCAR-8 ovarian
SF-539 CNS = test system: SF-539 CNS
HL-60(TB) leukemia = test system: HL-60(TB) leukemia
UO-31 renal = test system: UO-31 renal
MCF7 breast = test system: MCF7 breast
DU-145 prostate = test system: DU-145 prostate
SN12C renal = test system: SN12C renal
CCRF-CEM leukemia = test system: CCRF-CEM leukemia
HOP-92 NSCLC = test system: HOP-92 NSCLC
MDA-MB-435 = test system: MDA-MB-435
NCI/ADR-RES ovarian = test system: NCI/ADR-RES ovarian
NCI-H522 lung = test system: NCI-H522 lung
786-0 renal = test system: 786-0 renal
NCI-H23 lung = test system: NCI-H23 lung
HT29 colon = test system: HT29 colon
SF-295 CNS = test system: SF-295 CNS
U251 CNS = test system: U251 CNS
A498 renal = test system: A498 renal
CAKI-1 renal = test system: CAKI-1 renal
SK-MEL-2 melanoma = test system: SK-MEL-2 melanoma
COLO 205 colon = test system: COLO 205 colon
OVCAR-5 ovarian = test system: OVCAR-5 ovarian
LOX IMVI melanoma = test system: LOX IMVI melanoma
EKVX NSCLC = test system: EKVX NSCLC
RXF 393 renal = test system: RXF 393 renal
HOP-62 NSCLC = test system: HOP-62 NSCLC
SF-268 CNS = test system: SF-268 CNS
HS 578T breast = test system: HS 578T breast
MDA-MB-231 breast = test system: MDA-MB-231 breast
SK-MEL-5 melanoma = test system: SK-MEL-5 melanoma
HCT-15 colon = test system: HCT-15 colon
UACC-257 melanoma = test system: UACC-257 melanoma
HCC-2998 colon = test system: HCC-2998 colon
KM12 colon = test system: KM12 colon
SW-620 colon = test system: SW-620 colon
PC-3 prostate = test system: PC-3 prostate
SK-MEL-28 melanoma = test system: SK-MEL-28 melanoma
A549 NSCLC = test system: A549 NSCLC
IGROV1 ovarian = test system: IGROV1 ovarian
BT-549 breast = test system: BT-549 breast
NCI-H460 lung = test system: NCI-H460 lung
MALME-3M melanoma = test system: MALME-3M melanoma

`Cc1ccc(O)c(C(c2cc(C)ccc2O)c2cc([N+](=O)[O-])ccc2O)c1` was tested, and the TGI (HCT-116 colon) was 56.1 µM, the TGI (SR leukemia) was 39.1 µM and the TGI (SNB-75 CNS) was 21.2 µM. The TGI (NCI-H226 lung) was 55.8 µM, the TGI (M14 melanoma) was 24.5 µM and the TGI (OVCAR-3 ovarian) was 25.4 µM. The TGI (SK-OV-3 ovarian) was 37 µM, the TGI (T-47D breast) was 77.8 µM and the TGI (OVCAR-4 ovarian) was 28.3 µM. The TGI (K-562 leukemia) was greater than 100 µM, the TGI (TK-10 renal) was 34.8 µM and the TGI (RPMI-8226 leukemia) was 50.6 µM. The TGI (UACC-62 melanoma) was 36.6 µM, the TGI (MOLT-4 leukemia) was 35 µM and the TGI (ACHN renal) was 27.1 µM. The TGI (OVCAR-8 ovarian) was 25.5 µM, the TGI (SF-539 CNS) was 33.9 µM and the TGI (HL-60(TB) leukemia) was 11.7 µM. It also gave a TGI (UO-31 renal) of 21.5 µM, a TGI (MCF7 breast) of 33.8 µM and a TGI (DU-145 prostate) of 50.3 µM. For the same compound, the TGI (SN12C renal) was 28.3 µM, the TGI (CCRF-CEM leukemia) was 91 µM and the TGI (HOP-92 NSCLC) was 38.9 µM. The TGI (MDA-MB-435) was 45.3 µM, the TGI (NCI/ADR-RES ovarian) was 66.8 µM and the TGI (NCI-H522 lung) was 30 µM. For the same compound, the TGI (786-0 renal) was 33.9 µM, the TGI (NCI-H23 lung) was 28.9 µM and the TGI (HT29 colon) was 38.3 µM. For the same compound, the TGI (SF-295 CNS) was 36.9 µM, the TGI (U251 CNS) was 46.4 µM and the TGI (A498 renal) was 39.5 µM. The TGI (CAKI-1 renal) was 24.8 µM, the TGI (SK-MEL-2 melanoma) was 28.2 µM and the TGI (COLO 205 colon) was 45.9 µM. It also gave a TGI (OVCAR-5 ovarian) of 28.8 µM, a TGI (LOX IMVI melanoma) greater than 100 µM and a TGI (EKVX NSCLC) of 32.3 µM. It also gave a TGI (RXF 393 renal) of 54 µM, a TGI (HOP-62 NSCLC) of 26.3 µM and a TGI (SF-268 CNS) of 24.6 µM. It also gave a TGI (HS 578T breast) of 37.9 µM, a TGI (MDA-MB-231 breast) of 22.3 µM and a TGI (SK-MEL-5 melanoma) greater than 100 µM. It also gave a TGI (HCT-15 colon) of 36.1 µM, a TGI (UACC-257 melanoma) of 37.6 µM and a TGI (HCC-2998 colon) of 25.5 µM. The TGI (KM12 colon) was 21.2 µM, the TGI (SW-620 colon) was 67 µM and the TGI (PC-3 prostate) was 21.3 µM. The TGI (SK-MEL-28 melanoma) was 39.6 µM, the TGI (A549 NSCLC) was 31.2 µM and the TGI (IGROV1 ovarian) was 24.4 µM.
`CCOC(=O)c1cc(C(=O)c2cc(OC)c(OC)c(OC)c2)n2ccc(-c3cc[n+](CC(=O)c4cc(OC)c(OC)c(OC)c4)cc3)cc12` showed a GI50 (HCT-116 colon) of 1.72 µM, a TGI (HCT-116 colon) of 3.5 µM and a GI50 (SNB-75 CNS) of 1.46 µM. It also gave a TGI (SNB-75 CNS) of 3.36 µM, a GI50 (BT-549 breast) of 1.98 µM and a TGI (BT-549 breast) of 4.49 µM. It also gave a GI50 (NCI-H226 lung) of 2.37 µM, a TGI (NCI-H226 lung) of 6.62 µM and a GI50 (OVCAR-3 ovarian) of 1.83 µM. It also gave a TGI (OVCAR-3 ovarian) of 3.6 µM, a GI50 (SK-OV-3 ovarian) of 19.6 µM and a TGI (SK-OV-3 ovarian) of 47.1 µM. For the same compound, the GI50 (T-47D breast) was 1.94 µM, the TGI (T-47D breast) was 4.85 µM and the GI50 (OVCAR-4 ovarian) was 1.74 µM. The TGI (OVCAR-4 ovarian) was 3.67 µM, the GI50 (TK-10 renal) was 1.79 µM and the TGI (TK-10 renal) was 3.5 µM. It also gave a GI50 (UACC-62 melanoma) of 2.32 µM, a TGI (UACC-62 melanoma) of 5.72 µM and a GI50 (ACHN renal) of 3.33 µM. The TGI (ACHN renal) was 13.6 µM, the GI50 (OVCAR-8 ovarian) was 2.33 µM and the TGI (OVCAR-8 ovarian) was 5.47 µM. It also gave a GI50 (SF-539 CNS) of 1.61 µM, a TGI (SF-539 CNS) of 3.3 µM and a GI50 (NCI-H460 lung) of 2 µM. It also gave a TGI (NCI-H460 lung) of 3.78 µM, a GI50 (HL-60(TB) leukemia) of 2.58 µM and a TGI (HL-60(TB) leukemia) of 5.75 µM. The GI50 (UO-31 renal) was 7.97 µM, the TGI (UO-31 renal) was 26.5 µM and the GI50 (MALME-3M melanoma) was 1.73 µM. For the same compound, the TGI (MALME-3M melanoma) was 3.68 µM, the GI50 (DU-145 prostate) was 1.8 µM and the TGI (DU-145 prostate) was 3.39 µM. It also gave a GI50 (SN12C renal) of 1.87 µM, a TGI (SN12C renal) of 3.87 µM and a GI50 (MDA-MB-435) of 1.9 µM. The TGI (MDA-MB-435) was 3.85 µM, the GI50 (NCI/ADR-RES ovarian) was greater than 100 µM and the TGI (NCI/ADR-RES ovarian) was greater than 100 µM. It also gave a GI50 (NCI-H522 lung) of 2.13 µM, a TGI (NCI-H522 lung) of 5.04 µM and a GI50 (786-0 renal) of 1.75 µM. The TGI (786-0 renal) was 3.39 µM, the GI50 (HT29 colon) was 1.83 µM and the TGI (HT29 colon) was 3.68 µM. It also gave a GI50 (A498 renal) of 1.96 µM, a TGI (A498 renal) of 3.85 µM and a GI50 (SK-MEL-2 melanoma) of 2.6 µM. For the same compound, the TGI (SK-MEL-2 melanoma) was 7.12 µM, the GI50 (OVCAR-5 ovarian) was 1.84 µM and the TGI (OVCAR-5 ovarian) was 5.24 µM. It also gave a GI50 (EKVX NSCLC) of 2.64 µM, a TGI (EKVX NSCLC) of 10.3 µM and a GI50 (RXF 393 renal) of 1.66 µM. The TGI (RXF 393 renal) was 3.48 µM, the GI50 (HS 578T breast) was 1.74 µM and the TGI (HS 578T breast) was 4.29 µM. The GI50 (MDA-MB-231 breast) was 1.66 µM, the TGI (MDA-MB-231 breast) was 3.29 µM and the GI50 (SK-MEL-5 melanoma) was 1.81 µM. For the same compound, the TGI (SK-MEL-5 melanoma) was 3.54 µM, the GI50 (HCT-15 colon) was 2.62 µM and the TGI (HCT-15 colon) was 7.93 µM. For the same compound, the GI50 (UACC-257 melanoma) was 3.13 µM, the TGI (UACC-257 melanoma) was 7.04 µM and the GI50 (HCC-2998 colon) was 3.32 µM. It also gave a TGI (HCC-2998 colon) of 15.1 µM, a GI50 (KM12 colon) of 1.81 µM and a TGI (KM12 colon) of 3.42 µM. For the same compound, the GI50 (SW-620 colon) was 1.76 µM, the TGI (SW-620 colon) was 3.47 µM and the GI50 (PC-3 prostate) was 2.61 µM. The TGI (PC-3 prostate) was 8.12 µM, the GI50 (SK-MEL-28 melanoma) was 1.75 µM and the TGI (SK-MEL-28 melanoma) was 3.6 µM. For the same compound, the GI50 (A549 NSCLC) was 3.29 µM, the TGI (A549 NSCLC) was 6.29 µM and the GI50 (IGROV1 ovarian) was 2.12 µM. It also gave a TGI (IGROV1 ovarian) of 5.92 µM.
